Results reported in ChEMBL document CHEMBL5291721, “A preclinical secondary pharmacology resource illuminates target-adverse drug reaction associations of marketed drugs” (Nat Commun, 2023).

Assays:
B2 bradykinin receptor = target: T1, B2 bradykinin receptor (Homo sapiens, UniProt P30411)
T1 sequence (P30411 whole entry): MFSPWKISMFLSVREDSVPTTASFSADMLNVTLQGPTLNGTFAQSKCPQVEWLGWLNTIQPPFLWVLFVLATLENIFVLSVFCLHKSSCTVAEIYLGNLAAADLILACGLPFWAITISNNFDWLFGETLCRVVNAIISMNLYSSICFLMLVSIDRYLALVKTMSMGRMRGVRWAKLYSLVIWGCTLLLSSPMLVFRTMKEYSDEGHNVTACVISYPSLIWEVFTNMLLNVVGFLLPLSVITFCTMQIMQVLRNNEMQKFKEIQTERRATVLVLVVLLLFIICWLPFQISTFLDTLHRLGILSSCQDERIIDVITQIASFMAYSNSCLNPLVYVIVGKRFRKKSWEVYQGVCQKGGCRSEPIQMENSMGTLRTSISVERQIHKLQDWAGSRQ

Motilin receptor = Motilin receptor (Homo sapiens, UniProt O43193)
Chain of Motilin receptor (O43193 whole entry): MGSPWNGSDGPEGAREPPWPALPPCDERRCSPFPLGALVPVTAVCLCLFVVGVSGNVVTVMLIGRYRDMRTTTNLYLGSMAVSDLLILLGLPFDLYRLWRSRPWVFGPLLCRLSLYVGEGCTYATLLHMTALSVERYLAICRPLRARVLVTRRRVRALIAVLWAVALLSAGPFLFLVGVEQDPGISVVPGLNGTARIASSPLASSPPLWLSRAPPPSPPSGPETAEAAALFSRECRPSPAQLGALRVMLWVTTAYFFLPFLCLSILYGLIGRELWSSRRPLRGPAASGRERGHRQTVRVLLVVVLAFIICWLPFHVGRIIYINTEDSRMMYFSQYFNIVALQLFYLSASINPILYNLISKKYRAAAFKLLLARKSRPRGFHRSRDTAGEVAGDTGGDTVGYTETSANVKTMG

Vasopressin V2 receptor = Vasopressin V2 receptor (Homo sapiens, UniProt P30518)
Chain of Vasopressin V2 receptor (P30518 whole entry): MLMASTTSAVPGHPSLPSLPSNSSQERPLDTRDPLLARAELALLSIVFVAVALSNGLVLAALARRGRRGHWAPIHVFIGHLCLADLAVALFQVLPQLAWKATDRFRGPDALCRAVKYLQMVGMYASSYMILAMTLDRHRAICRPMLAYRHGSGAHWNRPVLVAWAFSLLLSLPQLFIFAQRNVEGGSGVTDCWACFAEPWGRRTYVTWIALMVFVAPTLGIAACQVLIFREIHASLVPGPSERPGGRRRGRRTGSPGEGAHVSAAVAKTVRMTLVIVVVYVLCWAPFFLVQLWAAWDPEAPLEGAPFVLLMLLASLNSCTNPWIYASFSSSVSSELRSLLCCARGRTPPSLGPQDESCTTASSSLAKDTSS

Progesterone receptor = target: T2, Progesterone receptor (Homo sapiens, UniProt P06401); type: functional
T2 sequence (P06401 whole entry): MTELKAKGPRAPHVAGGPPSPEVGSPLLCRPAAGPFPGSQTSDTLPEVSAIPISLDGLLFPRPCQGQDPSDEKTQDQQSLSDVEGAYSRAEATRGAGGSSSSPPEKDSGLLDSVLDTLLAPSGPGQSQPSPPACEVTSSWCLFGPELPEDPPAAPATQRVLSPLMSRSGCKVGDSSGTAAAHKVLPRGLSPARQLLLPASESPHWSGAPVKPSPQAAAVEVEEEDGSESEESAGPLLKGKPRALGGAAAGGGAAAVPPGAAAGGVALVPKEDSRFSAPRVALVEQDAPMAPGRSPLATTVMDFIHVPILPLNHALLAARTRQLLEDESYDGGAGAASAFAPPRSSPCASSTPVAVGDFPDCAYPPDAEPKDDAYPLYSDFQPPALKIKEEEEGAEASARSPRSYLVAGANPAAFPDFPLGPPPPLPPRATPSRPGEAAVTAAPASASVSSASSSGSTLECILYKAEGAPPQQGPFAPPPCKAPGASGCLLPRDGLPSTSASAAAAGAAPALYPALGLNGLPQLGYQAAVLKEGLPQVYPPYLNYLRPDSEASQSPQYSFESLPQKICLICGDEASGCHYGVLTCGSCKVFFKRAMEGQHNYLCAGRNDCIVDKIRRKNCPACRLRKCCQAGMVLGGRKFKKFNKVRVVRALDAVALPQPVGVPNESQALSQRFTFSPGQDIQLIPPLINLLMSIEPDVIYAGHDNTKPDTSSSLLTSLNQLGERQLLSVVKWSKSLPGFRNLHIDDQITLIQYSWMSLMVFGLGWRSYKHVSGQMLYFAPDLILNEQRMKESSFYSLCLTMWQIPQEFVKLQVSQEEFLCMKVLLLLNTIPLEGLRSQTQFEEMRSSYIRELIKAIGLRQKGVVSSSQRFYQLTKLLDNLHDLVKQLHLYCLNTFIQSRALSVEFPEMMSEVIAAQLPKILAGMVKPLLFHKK

[1] = target: T3, 5-hydroxytryptamine receptor 1A (Homo sapiens, UniProt P08908); type: functional, cell-based
T3 sequence (P08908 whole entry): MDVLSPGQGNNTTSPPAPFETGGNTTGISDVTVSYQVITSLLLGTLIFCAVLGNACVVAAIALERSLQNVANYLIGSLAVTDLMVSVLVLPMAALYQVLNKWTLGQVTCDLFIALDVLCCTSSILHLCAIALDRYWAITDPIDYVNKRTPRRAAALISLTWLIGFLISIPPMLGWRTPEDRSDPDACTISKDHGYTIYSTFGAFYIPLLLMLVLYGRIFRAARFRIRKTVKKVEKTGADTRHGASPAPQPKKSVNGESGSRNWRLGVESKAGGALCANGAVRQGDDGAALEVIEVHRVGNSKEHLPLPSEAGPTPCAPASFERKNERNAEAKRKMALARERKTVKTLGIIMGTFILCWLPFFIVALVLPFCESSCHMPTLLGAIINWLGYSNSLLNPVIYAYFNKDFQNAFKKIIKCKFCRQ

[2] = target: T4, Corticotropin-releasing factor receptor 1 (Homo sapiens, UniProt P34998)
T4 sequence (P34998 whole entry): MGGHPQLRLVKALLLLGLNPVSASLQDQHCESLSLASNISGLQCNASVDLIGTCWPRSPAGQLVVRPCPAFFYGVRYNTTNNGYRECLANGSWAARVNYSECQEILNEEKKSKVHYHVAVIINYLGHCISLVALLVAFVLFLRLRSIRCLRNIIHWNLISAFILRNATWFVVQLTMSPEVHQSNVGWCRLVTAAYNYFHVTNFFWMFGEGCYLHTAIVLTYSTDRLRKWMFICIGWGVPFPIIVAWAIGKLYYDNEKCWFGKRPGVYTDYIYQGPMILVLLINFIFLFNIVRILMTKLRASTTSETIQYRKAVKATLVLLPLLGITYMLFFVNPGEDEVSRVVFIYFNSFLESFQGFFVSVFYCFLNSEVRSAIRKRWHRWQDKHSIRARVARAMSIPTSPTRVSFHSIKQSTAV

[3] = target: Gamma-aminobutyric acid receptor subunit alpha-1 (Rattus norvegicus, UniProt P62813)
Chain of Gamma-aminobutyric acid receptor subunit alpha-1 (P62813 whole entry): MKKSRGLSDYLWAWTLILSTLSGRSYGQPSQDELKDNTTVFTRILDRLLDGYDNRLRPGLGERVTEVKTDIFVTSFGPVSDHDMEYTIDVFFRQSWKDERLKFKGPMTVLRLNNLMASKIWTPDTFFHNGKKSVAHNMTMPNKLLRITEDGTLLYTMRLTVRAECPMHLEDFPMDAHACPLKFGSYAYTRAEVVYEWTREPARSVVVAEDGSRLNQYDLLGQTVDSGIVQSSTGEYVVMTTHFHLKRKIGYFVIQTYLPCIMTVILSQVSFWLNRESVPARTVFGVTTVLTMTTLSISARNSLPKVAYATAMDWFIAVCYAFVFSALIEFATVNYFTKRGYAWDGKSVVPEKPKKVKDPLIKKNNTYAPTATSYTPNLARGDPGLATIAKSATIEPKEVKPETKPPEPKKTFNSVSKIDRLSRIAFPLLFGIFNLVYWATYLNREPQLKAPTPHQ

Estrogen receptor = target: T5, Estrogen receptor (Homo sapiens, UniProt P03372)
T5 sequence (P03372 whole entry): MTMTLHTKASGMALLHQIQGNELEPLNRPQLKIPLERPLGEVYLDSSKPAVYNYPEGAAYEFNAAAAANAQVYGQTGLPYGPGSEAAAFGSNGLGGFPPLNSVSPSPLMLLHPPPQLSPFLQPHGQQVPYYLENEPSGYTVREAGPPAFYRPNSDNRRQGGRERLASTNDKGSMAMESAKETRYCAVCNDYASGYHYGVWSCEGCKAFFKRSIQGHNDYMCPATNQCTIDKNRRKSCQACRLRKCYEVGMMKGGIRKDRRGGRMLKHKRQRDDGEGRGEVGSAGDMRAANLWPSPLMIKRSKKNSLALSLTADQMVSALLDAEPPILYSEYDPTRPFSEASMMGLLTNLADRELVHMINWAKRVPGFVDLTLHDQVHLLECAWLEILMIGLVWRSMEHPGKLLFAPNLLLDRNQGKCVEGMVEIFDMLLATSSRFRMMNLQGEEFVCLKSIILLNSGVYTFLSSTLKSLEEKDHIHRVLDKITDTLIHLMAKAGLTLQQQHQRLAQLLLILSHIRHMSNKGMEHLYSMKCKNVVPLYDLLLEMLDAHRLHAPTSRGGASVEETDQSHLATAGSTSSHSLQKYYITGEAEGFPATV
Also: assay procedure not described here.

`COC(=O)[C@H](c1ccccc1Cl)N1CCc2sccc2C1` [CLOPIDOGREL] showed an AC50 (B2 bradykinin receptor) of over 30 µM, an AC50 (Motilin receptor) of over 30 µM and an AC50 (Vasopressin V2 receptor) of over 30 µM. It also gave an AC50 (Progesterone receptor) of over 30 µM, an AC50 [1] of over 30 µM and an AC50 [2] of over 30 µM.

Compound `CNC[C@H](O)c1cccc(O)c1` [PHENYLEPHRINE] has an AC50 (B2 bradykinin receptor) of over 30 µM, an AC50 (Motilin receptor) of over 10 µM and an AC50 (Vasopressin V2 receptor) of over 30 µM. The AC50 [3] was over 30 µM, the AC50 [1] was over 10 µM and the AC50 [2] was over 30 µM.

Work on `O=C1NC(=O)C(c2ccccc2)(c2ccccc2)N1` [PHENYTOIN] yielded an AC50 (B2 bradykinin receptor) of over 30 µM, an AC50 (Motilin receptor) of over 30 µM and an AC50 (Vasopressin V2 receptor) of over 30 µM. It also gave an AC50 (Progesterone receptor) of over 30 µM, an AC50 [1] of over 30 µM and an AC50 [2] of over 30 µM.

Work on `CC(C)C[C@H](CN)CC(=O)O` [PREGABALIN] yielded an AC50 (B2 bradykinin receptor) of over 30 µM, an AC50 (Motilin receptor) of over 30 µM and an AC50 (Vasopressin V2 receptor) of over 30 µM. For the same compound, the AC50 (Progesterone receptor) was over 30 µM, the AC50 [1] was over 30 µM and the AC50 [2] was over 30 µM.

Work on `CCCN(CCC)CCc1cccc2c1CC(=O)N2` [ROPINIROLE] yielded an AC50 (B2 bradykinin receptor) of over 30 µM, an AC50 (Motilin receptor) of over 30 µM and an AC50 (Vasopressin V2 receptor) of over 30 µM. For the same compound, the AC50 (Progesterone receptor) was over 30 µM, the AC50 [1] was over 30 µM and the AC50 [2] was over 30 µM.

With `CCCCNc1ccc(C(=O)OCCN(C)C)cc1` [TETRACAINE] the AC50 (B2 bradykinin receptor) was over 30 µM, the AC50 (Motilin receptor) was over 10 µM and the AC50 (Vasopressin V2 receptor) was over 30 µM. It also gave an AC50 [3] of over 30 µM, an AC50 [1] of over 10 µM and an AC50 [2] of over 30 µM.

Compound `Cn1c(=O)c2[nH]cnc2n(C)c1=O` [THEOPHYLLINE] has an AC50 (B2 bradykinin receptor) of over 30 µM, an AC50 (Motilin receptor) of over 10 µM and an AC50 (Vasopressin V2 receptor) of over 30 µM. For the same compound, the AC50 [3] was over 30 µM, the AC50 [1] was over 10 µM and the AC50 [2] was over 30 µM.

Compound `CC1(C)O[C@@H]2[C@@H](CO[C@@]3(COS(N)(=O)=O)OC(C)(C)O[C@@H]23)O1` [TOPIRAMATE] has an AC50 (B2 bradykinin receptor) of over 30 µM, an AC50 (Estrogen receptor) of over 30 µM and an AC50 (Motilin receptor) of over 10 µM. The AC50 (Vasopressin V2 receptor) was over 30 µM, the AC50 [3] was over 30 µM and the AC50 [1] was over 10 µM. The AC50 [2] was over 30 µM.
